Activity calls are given as the source filed them.
Experiments:
[1] = biological target: T1, G-protein coupled receptor 35 (Homo sapiens, UniProt Q9HC97); assay: SAR analysis of Agonists of the GPR35 Receptor using an Image-Based Assay - Set 4. [Related pubchem assays (depositor defined):AID2013, AID2026]; format: functional
Cannabinoid receptor 1 [2] = biological target: T2, Cannabinoid receptor 1 (Homo sapiens, UniProt P21554); assay: SAR analysis of agonists of the Cannabinoid Receptor 1 using an Image-Based Assay - Set 4. [Related pubchem assays (depositor defined):AID2013, AID2026]; format: functional
T2 sequence (P21554 whole entry): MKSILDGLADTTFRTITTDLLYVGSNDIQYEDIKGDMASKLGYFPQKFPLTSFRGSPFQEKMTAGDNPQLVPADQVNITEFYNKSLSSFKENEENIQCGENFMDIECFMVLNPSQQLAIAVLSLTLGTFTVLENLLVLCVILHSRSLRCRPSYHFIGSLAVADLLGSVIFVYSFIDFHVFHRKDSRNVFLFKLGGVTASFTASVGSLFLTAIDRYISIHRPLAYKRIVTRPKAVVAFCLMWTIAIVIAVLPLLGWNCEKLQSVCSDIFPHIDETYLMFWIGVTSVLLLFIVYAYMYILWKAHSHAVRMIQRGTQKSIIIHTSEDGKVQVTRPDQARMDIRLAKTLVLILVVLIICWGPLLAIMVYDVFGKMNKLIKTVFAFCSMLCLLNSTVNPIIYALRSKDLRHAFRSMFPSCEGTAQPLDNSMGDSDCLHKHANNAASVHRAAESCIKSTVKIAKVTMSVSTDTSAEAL

[3] = biological target: T1, G-protein coupled receptor 35; assay: SAR analysis of Antagonists of the GPR35 Receptor using an Image-Based Assay - Set 6. [Related pubchem assays (depositor defined):AID2013, AID2026]; format: functional
Cannabinoid receptor 1 [4] = biological target: T2, Cannabinoid receptor 1; assay: SAR analysis of antagonists of the Cannabinoid Receptor 1 using an Image-Based Assay - Set 4. [Related pubchem assays (depositor defined):AID2013, AID2026]; format: functional
[5] = biological target: G-protein coupled receptor 55 (Homo sapiens, UniProt Q9Y2T6); assay: SAR Analysis of Selective Antagonists of GPR55 using an Image-Based Assay - Set 4. [Related pubchem assays (depositor defined):AID2013, AID2026]; format: functional;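 also: antagonism of response to 5 µM lysophosphatidylinositol agonist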
G-protein coupled receptor 55, sequence (Q9Y2T6 whole entry): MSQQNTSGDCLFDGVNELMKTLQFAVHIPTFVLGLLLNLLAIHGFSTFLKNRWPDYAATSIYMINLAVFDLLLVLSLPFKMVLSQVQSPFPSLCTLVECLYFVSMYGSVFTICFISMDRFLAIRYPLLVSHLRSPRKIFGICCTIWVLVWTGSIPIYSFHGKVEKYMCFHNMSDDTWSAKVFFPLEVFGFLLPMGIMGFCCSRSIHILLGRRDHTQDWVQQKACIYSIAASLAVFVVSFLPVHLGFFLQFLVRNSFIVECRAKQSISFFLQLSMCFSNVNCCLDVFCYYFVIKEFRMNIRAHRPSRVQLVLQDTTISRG

Cannabinoid receptor 2 [6] = biological target: T3, Cannabinoid receptor 2 (Homo sapiens, UniProt P34972); assay: SAR analysis of antagonists of the Cannabinoid Receptor 2 using an Image-Based Assay - Set 3. [Related pubchem assays (depositor defined):AID2013, AID2026]; format: functional
T3 sequence (P34972 whole entry): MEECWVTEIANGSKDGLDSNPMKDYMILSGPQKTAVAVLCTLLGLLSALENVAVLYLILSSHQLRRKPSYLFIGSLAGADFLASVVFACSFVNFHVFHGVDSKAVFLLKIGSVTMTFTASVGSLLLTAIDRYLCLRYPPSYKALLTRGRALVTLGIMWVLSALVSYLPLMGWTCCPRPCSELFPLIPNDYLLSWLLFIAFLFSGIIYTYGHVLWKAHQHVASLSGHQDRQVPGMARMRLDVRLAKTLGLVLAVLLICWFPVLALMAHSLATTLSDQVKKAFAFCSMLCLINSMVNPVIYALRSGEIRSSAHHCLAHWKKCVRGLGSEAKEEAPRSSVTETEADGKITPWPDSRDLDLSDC

Cannabinoid receptor 2 [7] = biological target: T3, Cannabinoid receptor 2; assay: SAR analysis of agonists of the Cannabinoid Receptor 2 using an Image-Based Assay - Set 3. [Related pubchem assays (depositor defined):AID2013, AID2026]; format: functional
Hexokinase HKDC1 = biological target: T4, Hexokinase HKDC1 (Homo sapiens, UniProt Q2TB90); assay: activation of HKDC1 glucose phosphorylation – biochemical, W721R variant, dose response (AID 504730); format: functional
T4 sequence (Q2TB90 whole entry): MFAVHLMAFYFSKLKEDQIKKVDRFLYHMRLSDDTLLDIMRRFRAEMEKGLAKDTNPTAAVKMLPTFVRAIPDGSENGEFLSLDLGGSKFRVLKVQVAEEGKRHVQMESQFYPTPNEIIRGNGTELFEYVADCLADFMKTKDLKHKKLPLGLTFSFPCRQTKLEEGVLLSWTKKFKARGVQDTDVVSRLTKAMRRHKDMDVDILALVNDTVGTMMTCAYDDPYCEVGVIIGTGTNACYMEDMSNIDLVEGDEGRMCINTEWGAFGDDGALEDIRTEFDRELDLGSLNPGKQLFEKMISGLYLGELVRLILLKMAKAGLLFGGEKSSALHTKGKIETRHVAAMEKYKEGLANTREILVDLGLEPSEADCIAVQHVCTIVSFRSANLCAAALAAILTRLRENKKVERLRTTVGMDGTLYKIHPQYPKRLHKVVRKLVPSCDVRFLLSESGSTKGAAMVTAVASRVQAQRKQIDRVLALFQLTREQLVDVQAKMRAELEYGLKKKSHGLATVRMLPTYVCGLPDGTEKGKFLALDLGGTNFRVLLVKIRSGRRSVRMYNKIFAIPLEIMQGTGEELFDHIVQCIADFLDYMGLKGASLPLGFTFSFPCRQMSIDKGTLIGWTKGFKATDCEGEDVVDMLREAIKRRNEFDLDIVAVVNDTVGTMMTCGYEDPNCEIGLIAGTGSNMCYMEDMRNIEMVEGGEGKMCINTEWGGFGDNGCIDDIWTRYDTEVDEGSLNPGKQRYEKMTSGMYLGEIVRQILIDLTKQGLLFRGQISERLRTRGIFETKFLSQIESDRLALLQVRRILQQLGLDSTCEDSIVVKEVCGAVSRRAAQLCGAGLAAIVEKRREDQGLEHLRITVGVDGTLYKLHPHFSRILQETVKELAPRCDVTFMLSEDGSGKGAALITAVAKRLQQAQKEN

Hexokinase-1 = biological target: T5, Hexokinase-1 (Homo sapiens, UniProt P19367); assay: HK1 enzyme activation by HKDC1 hits – biochemical, selectivity assay for HKDC1 activator project, dose response (AID 504762); format: functional
T5 sequence (P19367 whole entry): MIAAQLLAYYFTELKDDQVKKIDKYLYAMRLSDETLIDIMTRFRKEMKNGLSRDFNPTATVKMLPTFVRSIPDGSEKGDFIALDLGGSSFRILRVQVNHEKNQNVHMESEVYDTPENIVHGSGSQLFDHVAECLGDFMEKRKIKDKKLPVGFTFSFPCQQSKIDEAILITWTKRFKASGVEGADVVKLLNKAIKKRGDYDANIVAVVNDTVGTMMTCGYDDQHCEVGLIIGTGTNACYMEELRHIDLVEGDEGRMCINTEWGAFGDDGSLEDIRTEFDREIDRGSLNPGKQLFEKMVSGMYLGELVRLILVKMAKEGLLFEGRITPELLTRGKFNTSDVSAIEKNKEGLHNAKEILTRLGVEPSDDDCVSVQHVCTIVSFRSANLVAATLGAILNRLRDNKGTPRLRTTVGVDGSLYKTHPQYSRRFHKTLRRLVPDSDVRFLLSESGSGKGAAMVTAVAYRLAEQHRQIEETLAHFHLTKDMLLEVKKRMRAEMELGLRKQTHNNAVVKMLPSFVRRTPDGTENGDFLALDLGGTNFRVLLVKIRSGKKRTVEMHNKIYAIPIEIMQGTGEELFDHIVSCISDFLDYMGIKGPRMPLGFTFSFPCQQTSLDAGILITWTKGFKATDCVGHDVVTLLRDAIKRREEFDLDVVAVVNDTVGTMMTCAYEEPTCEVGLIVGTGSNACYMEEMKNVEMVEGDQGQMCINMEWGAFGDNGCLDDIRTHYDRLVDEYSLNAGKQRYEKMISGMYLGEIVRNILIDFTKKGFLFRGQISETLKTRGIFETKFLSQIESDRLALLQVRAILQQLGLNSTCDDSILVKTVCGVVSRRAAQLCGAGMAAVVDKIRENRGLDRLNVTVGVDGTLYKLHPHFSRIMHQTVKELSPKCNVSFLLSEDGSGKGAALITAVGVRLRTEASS

[8] = biological target: T6, Tyrosine-protein phosphatase non-receptor type 22 (Homo sapiens, UniProt Q9Y2R2); assay: SAR LYP1 Fluorescent Assay using pCAP substrate for In Vitro dose response studies - Set 2. [Related pubchem assays (depositor defined):AID1779, AID1784, AID2135, AID449727]; format: functional
T6 sequence (Q9Y2R2 whole entry): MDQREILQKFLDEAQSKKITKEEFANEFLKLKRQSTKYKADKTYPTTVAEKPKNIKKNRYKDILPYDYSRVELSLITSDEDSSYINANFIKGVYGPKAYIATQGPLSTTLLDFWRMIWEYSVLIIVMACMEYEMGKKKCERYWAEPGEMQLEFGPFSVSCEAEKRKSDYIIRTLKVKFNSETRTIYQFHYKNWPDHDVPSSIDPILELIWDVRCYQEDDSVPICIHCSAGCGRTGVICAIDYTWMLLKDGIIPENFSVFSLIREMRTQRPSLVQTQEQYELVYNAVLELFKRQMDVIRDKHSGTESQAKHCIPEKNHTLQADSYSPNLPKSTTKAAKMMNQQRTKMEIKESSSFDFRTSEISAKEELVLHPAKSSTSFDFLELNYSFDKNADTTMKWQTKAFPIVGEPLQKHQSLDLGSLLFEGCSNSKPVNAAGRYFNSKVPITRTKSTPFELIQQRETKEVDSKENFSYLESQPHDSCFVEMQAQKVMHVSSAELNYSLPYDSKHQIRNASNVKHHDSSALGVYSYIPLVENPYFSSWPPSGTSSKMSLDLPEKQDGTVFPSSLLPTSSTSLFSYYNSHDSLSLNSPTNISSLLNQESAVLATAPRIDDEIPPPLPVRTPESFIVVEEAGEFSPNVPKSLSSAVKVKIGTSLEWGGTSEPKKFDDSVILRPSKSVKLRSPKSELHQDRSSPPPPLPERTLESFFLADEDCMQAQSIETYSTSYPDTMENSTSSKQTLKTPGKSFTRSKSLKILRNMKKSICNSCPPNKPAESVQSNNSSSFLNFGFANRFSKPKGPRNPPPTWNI

[9] = biological target: Tyrosine-protein phosphatase non-receptor type 12 (Homo sapiens, UniProt Q05209); assay: SAR Selectivity Analysis of small molecule inhibitors of PEST using pCAP in a fluorescence assay. [Related pubchem assays (depositor defined):AID1779, AID1784, AID2135]; format: functional
Tyrosine-protein phosphatase non-receptor type 12, sequence (Q05209 whole entry): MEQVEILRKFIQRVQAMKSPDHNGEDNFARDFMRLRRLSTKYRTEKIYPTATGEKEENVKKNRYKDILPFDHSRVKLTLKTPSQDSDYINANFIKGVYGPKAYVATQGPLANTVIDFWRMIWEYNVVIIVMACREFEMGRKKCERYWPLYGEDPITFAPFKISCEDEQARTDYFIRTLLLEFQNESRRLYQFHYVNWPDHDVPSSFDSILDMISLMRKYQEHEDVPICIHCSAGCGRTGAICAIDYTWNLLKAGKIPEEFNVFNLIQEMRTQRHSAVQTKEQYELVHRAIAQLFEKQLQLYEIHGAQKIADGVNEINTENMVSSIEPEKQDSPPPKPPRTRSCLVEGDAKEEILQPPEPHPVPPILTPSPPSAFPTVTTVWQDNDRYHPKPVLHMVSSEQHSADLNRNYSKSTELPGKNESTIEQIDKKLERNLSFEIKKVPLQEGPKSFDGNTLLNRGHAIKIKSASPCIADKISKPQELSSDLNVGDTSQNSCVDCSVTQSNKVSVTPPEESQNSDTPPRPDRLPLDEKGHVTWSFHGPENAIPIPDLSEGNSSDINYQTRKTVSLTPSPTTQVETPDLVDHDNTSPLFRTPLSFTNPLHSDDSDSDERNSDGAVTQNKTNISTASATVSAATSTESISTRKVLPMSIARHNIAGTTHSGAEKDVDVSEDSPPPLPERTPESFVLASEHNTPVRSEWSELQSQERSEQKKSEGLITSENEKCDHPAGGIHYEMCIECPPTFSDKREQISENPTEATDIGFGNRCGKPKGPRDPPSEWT

[10] = biological target: T6, Tyrosine-protein phosphatase non-receptor type 22; assay: SAR LYP1 Fluorescent Assay using OMFP substrate for In Vitro dose response studies - Set 3. [Related pubchem assays (depositor defined):AID1779, AID1784, AID2140, AID2686]; format: functional
[11] = biological target: T7, Tyrosine-protein phosphatase non-receptor type 7 (Homo sapiens, UniProt P35236); assay: inhibition of hematopoietic tyrosine phosphatase HePTP – biochemical, set 2, SAR follow-up (AID 449736); format: functional
T7 sequence (P35236 whole entry): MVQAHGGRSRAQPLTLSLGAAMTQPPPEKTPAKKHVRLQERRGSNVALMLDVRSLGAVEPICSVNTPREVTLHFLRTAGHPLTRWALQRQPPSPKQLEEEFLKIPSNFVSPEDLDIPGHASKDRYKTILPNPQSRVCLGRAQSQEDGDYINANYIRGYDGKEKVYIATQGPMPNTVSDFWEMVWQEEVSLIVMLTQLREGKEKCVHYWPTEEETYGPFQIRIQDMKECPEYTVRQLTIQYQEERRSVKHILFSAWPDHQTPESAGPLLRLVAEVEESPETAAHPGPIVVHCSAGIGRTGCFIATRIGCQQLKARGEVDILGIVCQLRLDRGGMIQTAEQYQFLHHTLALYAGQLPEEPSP

[12] = biological target: T6, Tyrosine-protein phosphatase non-receptor type 22; assay: SAR LYP1 Fluorescent Assay using OMFP substrate for In Vitro dose response studies - Set 2. [Related pubchem assays (depositor defined):AID1779, AID1784, AID2140, AID449726, AID488869]; format: functional
[13] = biological target: Kappa-type opioid receptor (Homo sapiens, UniProt P41145); assay: SAR analysis of small molecule agonists of the kappa opioid receptor via a luminescent beta-arrestin assay - Set 3. [Related pubchem assays (depositor defined):AID1777, AID1785, AID1786, AID1966, AID2133, AID2136, AID2284, AID2500]; format: functional
Kappa-type opioid receptor, sequence (P41145 whole entry): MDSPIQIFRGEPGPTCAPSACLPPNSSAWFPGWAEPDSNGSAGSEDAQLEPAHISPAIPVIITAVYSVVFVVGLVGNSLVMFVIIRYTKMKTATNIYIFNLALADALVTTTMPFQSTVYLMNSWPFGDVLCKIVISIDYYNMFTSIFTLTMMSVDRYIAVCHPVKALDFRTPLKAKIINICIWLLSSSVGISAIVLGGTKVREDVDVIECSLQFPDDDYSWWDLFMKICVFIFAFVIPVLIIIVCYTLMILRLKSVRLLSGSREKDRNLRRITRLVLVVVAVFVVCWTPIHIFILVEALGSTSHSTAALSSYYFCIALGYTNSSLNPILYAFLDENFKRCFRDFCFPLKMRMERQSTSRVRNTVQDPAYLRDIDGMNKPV

[14] = system: Streptococcus sp. 'group A'; assay: Streptococcus pyogenes SK(-)GAS viability under kanamycin – luminescence, BacTiterGlo, confirmation, counter-screen for streptokinase expression inhibitor project, dose response (AID 1900); format: functional, organism-based
Streptokinase A = biological target: T8, Streptokinase A (Streptococcus pyogenes serotype M1, UniProt P10520); assay: viability-normalized secreted streptokinase activity reduction – plasminogen activation absorbance, OD405, dose response (AID 1914); format: functional, Streptococcus pyogenes M1 GAS;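 also: secreted streptokinase activity via plasminogen activation per viability signal from cell pellet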
T8 sequence (P10520 whole entry): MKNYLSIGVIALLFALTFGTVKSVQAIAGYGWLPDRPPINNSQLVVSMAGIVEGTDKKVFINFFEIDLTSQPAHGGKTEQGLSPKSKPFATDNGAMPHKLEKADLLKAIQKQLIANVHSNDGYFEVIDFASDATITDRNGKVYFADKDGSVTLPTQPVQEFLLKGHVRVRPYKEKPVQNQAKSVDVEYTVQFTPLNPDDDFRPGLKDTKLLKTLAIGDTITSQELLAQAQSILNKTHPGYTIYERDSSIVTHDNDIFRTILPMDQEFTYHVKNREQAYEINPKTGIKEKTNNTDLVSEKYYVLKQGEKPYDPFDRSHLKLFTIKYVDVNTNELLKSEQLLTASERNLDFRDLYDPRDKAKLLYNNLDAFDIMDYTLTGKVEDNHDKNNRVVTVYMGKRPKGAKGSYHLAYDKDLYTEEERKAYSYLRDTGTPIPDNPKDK

[15] = viability of PTEN-deleted HCT116 cells – cell-based, HCT116 PTEN knockout, dose response (AID 1047); format: functional;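 also: HCT116 colon tumor cells with PTEN knocked out; cells exposed to compound for 60 hours before readout; potency for loss of cell viability measured by luminescence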
[16] = viability of HCT116 lacking mutant beta-catenin – cell-based, human colon tumor, dose response (AID 1045); format: functional;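 also: HCT116 colon tumor cells with beta catenin knocked out; cells exposed to compound for 60 hours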
Streptococcus = assay: GAS UMAA2166 growth inhibition – luminescence, BacTiterGlo, counter-screen for streptokinase expression inhibitor project, dose response (AID 1915); format: functional, organism-based;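 also: potency for reduction of bacterial viability or growth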
[17] = Luminescence Cell-Based Dose Retest to Confirm Inhibitors of Cancer Stem Cells. [Related pubchem assays (depositor defined):AID2717, AID2721]; format: functional; conditions: Homo sapiens
[18] = PhoP promoter GFP reporter reduction in Typhimurium – purified and synthesized compounds, set 2, PhoP regulon inhibitor project, dose response (AID 2831); format: functional
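For AC50 in this document: cells exposed to compound for roughly 70 hours or longer before luminescence read.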

T1 sequence (Q9HC97 whole entry): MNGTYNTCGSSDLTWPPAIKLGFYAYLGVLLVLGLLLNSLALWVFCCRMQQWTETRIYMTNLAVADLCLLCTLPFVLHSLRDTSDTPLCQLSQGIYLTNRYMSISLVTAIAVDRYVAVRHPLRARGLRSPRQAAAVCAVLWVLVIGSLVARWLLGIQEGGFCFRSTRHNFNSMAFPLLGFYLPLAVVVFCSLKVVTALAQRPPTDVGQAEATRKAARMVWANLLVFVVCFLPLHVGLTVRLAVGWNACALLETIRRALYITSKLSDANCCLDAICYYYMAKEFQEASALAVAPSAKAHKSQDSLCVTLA

N=c1c(C(=O)NCc2ccco2)cc2c(=O)n3ccccc3nc2n1C1CCCC1
EC50 [1]: > 32 µM (inactive) | EC50 (Cannabinoid receptor 1 [2]): > 32 µM (inactive) | IC50 [3]: > 32 µM (inactive) | IC50 (Cannabinoid receptor 1 [4]): 31.5 µM (inactive) | IC50 [5]: 28.3 µM (inactive) | IC50 (Cannabinoid receptor 2 [6]): > 32 µM (inactive) | EC50 (Cannabinoid receptor 2 [7]): 2.13 µM (active)

CCOC(=O)c1c(C)[nH]c(C2=NN=C(Nc3ccccc3OC)SC2)c1C
EC50 (Hexokinase HKDC1): 15 µM (active) | EC50 (Hexokinase-1): 15.3 µM (active)

COc1cc(/C=C(\C#N)C(=O)Nc2cccc(C(=O)O)c2)ccc1OCc1ccc(C)cc1
IC50 [8]: 22.1 µM (active) | IC50 [9]: 2.69 µM (active) | IC50 [10]: 5.39 µM (active) | IC50 [11]: 2.02 µM (active) | IC50 [12]: 14.7 µM (active)

FC(F)(F)c1cc(CSc2nnc(-c3ccccn3)n2Cc2ccccc2)ccc1Cl
EC50 [13]: 2.22 µM (active)

CN1CCN(C2=Cc3cc(Cl)ccc3Sc3cc(F)ccc32)CC1
EC50 [14]: 7.44 µM (active) | EC50 (Streptokinase A): > 150 µM (not active) | EC50 [15]: 9.39 µM (active) | EC50 [16]: 10.5 µM (active) | EC50 (Streptococcus): 12 µM (active) | AC50 [17]: 6.63 µM (active) | IC50 [18]: > 125 µM (active)

— ChEMBL document CHEMBL1201862, “PubChem BioAssay data set” (2004)
